Data: patent US9169254B2, “Spiroimidazolone derivative” (Chugai Seiyaku Kabushiki Kaisha, priority 2009, dated 2015)
Counter-ions that a name gives are not always drawn.

Target: T1, human PTH1 receptor (Homo sapiens, UniProt Q03431)
T1 sequence (Q03431 27-593): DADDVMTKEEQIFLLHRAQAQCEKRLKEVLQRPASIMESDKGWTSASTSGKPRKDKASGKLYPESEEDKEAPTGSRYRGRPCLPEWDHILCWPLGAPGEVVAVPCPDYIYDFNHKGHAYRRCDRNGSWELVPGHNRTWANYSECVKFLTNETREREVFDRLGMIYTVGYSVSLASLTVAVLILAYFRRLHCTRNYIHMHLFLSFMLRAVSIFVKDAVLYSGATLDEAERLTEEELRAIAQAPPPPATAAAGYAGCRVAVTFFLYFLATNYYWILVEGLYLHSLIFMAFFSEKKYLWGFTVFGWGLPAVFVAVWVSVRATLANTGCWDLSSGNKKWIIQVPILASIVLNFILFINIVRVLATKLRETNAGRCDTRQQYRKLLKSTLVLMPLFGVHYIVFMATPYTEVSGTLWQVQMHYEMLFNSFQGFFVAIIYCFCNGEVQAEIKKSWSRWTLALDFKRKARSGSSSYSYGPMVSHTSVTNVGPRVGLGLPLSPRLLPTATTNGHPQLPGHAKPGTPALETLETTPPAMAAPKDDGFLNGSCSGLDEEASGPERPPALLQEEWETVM
Test: In vitro cAMP signal activity in HKRK-B7 cells (LLC-PK1 cells overexpressing the human PTH1 receptor)
Assay type: cell-based
Settings: HKRK-B7 cells, compound at 1×10^−3 M

[1] = cAMP produced as percentage of that produced by hPTH(1-34) at 100 nM

Structure (SMILES) | cAMP production activity (%) [1] | cAMP production activity (%) ([…], 0.1 µM)
Cc1cc(N(CC(F)(F)F)C(N)=O)ccc1CCS(=O)(=O)N1CCC2(CC1)N=C(c1cccc(OC(F)(F)F)c1)NC2=O [Compound 877, 1-(3-methyl-4-{2-[4-oxo-2-(3-trifluoromethoxy-phenyl)-1,3,8-triaza-spiro[4.5]dec-1-ene-8-sulfonyl]-ethyl}-phenyl)-1-(2,2,2-trifluoro-ethyl)-urea] | 35% | 
CC[C@H]1CC[C@H](C2=NC3(CCN(S(=O)(=O)CCc4ccc(N5CC(=O)NC5=O)cc4C)CC3)C(=O)N2)CC1 [Compound 878, 1-(4-{2-[2-(4-ethyl-cyclohexyl)-4-oxo-1,3,8-triaza-spiro[4.5]dec-1-ene-8-sulfonyl]-ethyl}-3-methyl-phenyl)-imidazolidine-2,4-dione] | 25% | 
CC[C@H]1CC[C@H](C2=NC3(CCN(S(=O)(=O)CCc4ccc(N5C(=O)NC(=O)C5C)cc4C)CC3)C(=O)N2)CC1 (some centres unmarked) [Compound 879, 1-(4-{2-[2-(4-ethyl-cyclohexyl)-4-oxo-1,3,8-triaza-spiro[4.5]dec-1-ene-8-sulfonyl]-ethyl}-3-methyl-phenyl)-5-methyl-imidazolidine-2,4-dione] | 70% | 
CCCCC1CCC(C2=NC3(CCN(S(=O)(=O)CCc4ccc(N5C(=O)CNC5=O)cc4C)CC3)C(=O)N2)CC1 (centres unmarked) [Compound 880, 3-(4-{2-[2-(4-Butyl-cyclohexyl)-4-oxo-1,3,8-triaza-spiro[4.5]dec-1-ene-8-sulfonyl]-ethyl}-3-methyl-phenyl)-imidazolidine-2,4-dione] | 68% | 
Cc1cc(N2C(=O)CNC2=O)ccc1CCS(=O)(=O)N1CCC2(CC1)N=C(C1CCC(C)CC1)NC2=O (centres unmarked) [Compound 881, 3-(3-methyl-4-{2-[2-(4-methyl-cyclohexyl)-4-oxo-1,3,8-triaza-spiro[4.5]dec-1-ene-8-sulfonyl]-ethyl}-phenyl)-imidazolidine-2,4-dione] | 48% | 
Cc1cc(N2C(=O)CNC2=O)ccc1CCS(=O)(=O)N1CCC2(CC1)N=C(C1CCC(C(C)C)CC1)NC2=O (centres unmarked) [Compound 882, 3-(4-{2-[2-(4-isopropyl-cyclohexyl)-4-oxo-1,3,8-triaza-spiro[4.5]dec-1-ene-8-sulfonyl]-ethyl}-3-methyl-phenyl)-imidazolidine-2,4-dione] | 70% | 
Cc1cc(N2C(=O)CNC2=O)cc(C)c1CCS(=O)(=O)N1CCC2(CC1)N=C(C1CCC(C)CC1)NC2=O (centres unmarked) [Compound 883, 3-(3,5-dimethyl-4-{2-[2-(4-methyl-cyclohexyl)-4-oxo-1,3,8-triaza-spiro[4.5]dec-1-ene-8-sulfonyl]-ethyl}-phenyl)-imidazolidine-2,4-dione] | 56% | 
CNN(C)C(=O)c1cc(C)c(CCS(=O)(=O)N2CCC3(CC2)N=C(C2CCC(CCC(F)(F)F)CC2)NC3=O)c(C)c1 (centres unmarked) [Compound 888, 3,5-Dimethyl-4-(2-{4-oxo-2-[4-(3,3,3-trifluoro-propyl)-cyclohexyl]-1,3,8-triaza-spiro[4.5]dec-1-ene-8-sulfonyl}-ethyl)-benzoic acid N,N′-dimethyl-hydrazide] |  | 86%

Further lines, with some results ahead:

cAMP production activity (%) [1] | Structure (SMILES) | cAMP production activity (%) ([…], 0.1 µM)
59% | Cc1cc(N2C(=O)CNC2=O)cc(C)c1CCS(=O)(=O)N1CCC2(CC1)N=C(C1CCC(C(C)C)CC1)NC2=O (centres unmarked) [Compound 884, 3-(4-{2-[2-(4-isopropyl-cyclohexyl)-4-oxo-1,3,8-triaza-spiro[4.5]dec-1-ene-8-sulfonyl]-ethyl}-3,5-dimethyl-phenyl)-imidazolidine-2,4-dione] | 
58% | Cc1cc(N2C(=O)N(C)C(C)(C)C2=O)cc(C)c1CCS(=O)(=O)N1CCC2(CC1)N=C(C1CCC(C)CC1)NC2=O (centres unmarked) [Compound 885, 3-(3,5-dimethyl-4-{2-[2-(4-methyl-cyclohexyl)-4-oxo-1,3,8-triaza-spiro[4.5]dec-1-ene-8-sulfonyl]-ethyl}-phenyl)-1,5,5-trimethyl-imidazolidine-2,4-dione] | 
68% | Cc1cc(NC(=O)[C@@H](N)CO)ccc1CCS(=O)(=O)N1CCC2(CC1)N=C(c1cccc(C(F)(F)F)c1)NC2=O [Compound 886, (S)-2-amino-3-hydroxy-N-(3-methyl-4-{2-[4-oxo-2-(3-trifluoromethyl-phenyl)-1,3,8-triaza-spiro[4.5]dec-1-ene-8-sulfonyl]-ethyl}-phenyl)-propionamide] | 
58% | CC[C@H]1CC[C@H](C2=NC3(CCN(S(=O)(=O)CCc4ccc(N5C(=O)NC(=O)C5(C)C)cc4C)CC3)C(=O)N2)CC1 [Compound 887, 1-(4-{2-[2-(4-ethyl-cyclohexyl)-4-oxo-1,3,8-triaza-spiro[4.5]dec-1-ene-8-sulfonyl]-ethyl}-3-methyl-phenyl)-5,5-dimethyl-imidazolidine-2,4-dione] | 
26% | Cc1cc(OC2CCNCC2)ccc1CCS(=O)(=O)N1CCC2(CC1)N=C(c1cccc(OC(F)(F)F)c1)NC2=O [Compound 889, 8-{2-[2-Methyl-4-(piperidin-4-yloxy)-phenyl]-ethanesulfonyl}-2-(3-trifluoromethoxy-phenyl)-1,3,8-triaza-spiro[4.5]dec-1-en-4-one hydrochloride] | 
61% | Cc1cc(C(=O)N(C)C)ccc1CCS(=O)(=O)N1CCC2(CC1)N=C(C1CCC(F)(F)CC1)NC2=O [Compound 890, 4-{2-[2-(4,4-Difluoro-cyclohexyl)-4-oxo-1,3,8-triaza-spiro[4.5]dec-1-ene-8-sulfonyl]-ethyl}-3,N,N-trimethyl-benzamide] | 
8.6% | Cc1cc(C(=O)N(C)C)ccc1CCS(=O)(=O)N1CCC2(CC1)N=C(c1ccc(S(C)(=O)=O)cc1)NC2=O [Compound 891, 4-{2-[2-(4-methanesulfonyl-phenyl)-4-oxo-1,3,8-triaza-spiro[4.5]dec-1-ene-8-sulfonyl]-ethyl}-3,N,N-trimethyl-benzamide] | 
51% | Cc1cc(C(=O)N(C)C)ccc1CCS(=O)(=O)N1CCC2(CC1)N=C(/C=C/c1cccc(C(F)(F)F)c1)NC2=O [Compound 892, 3,N,N-trimethyl-4-(2-{4-oxo-2-[(E)-2-(3-trifluoromethyl-phenyl)-vinyl]-1,3,8-triaza-spiro[4.5]dec-1-ene-8-sulfonyl}-ethyl)-benzamide] | 
14% | Cc1cc(C(=O)N(C)C)ccc1CCS(=O)(=O)N1CCC2(CC1)N=C(C#Cc1ccccc1)NC2=O [Compound 893, 3,N,N-trimethyl-4-[2-(4-oxo-2-phenylethynyl-1,3,8-triaza-spiro[4.5]dec-1-ene-8-sulfonyl)-ethyl]-benzamide] | 
85% | CCCCC1CCC(C2=NC3(CCN(S(=O)(=O)CCc4ccc(C(=O)N(C)C)cc4C)CC3)C(=O)N2)CC1 (centres unmarked) [Compound 894, 4-{2-[2-(4-butyl-cyclohexyl)-4-oxo-1,3,8-triaza-spiro[4.5]dec-1-ene-8-sulfonyl]-ethyl}-3,N,N-trimethyl-benzamide] | 
90% | Cc1cc(C(=O)N(C)C)ccc1CCS(=O)(=O)N1CCC2(CC1)N=C(C1CCC(C(C)(C)C)CC1)NC2=O (centres unmarked) [Compound 895, 4-{2-[2-(4-tert-butyl-cyclohexyl)-4-oxo-1,3,8-triaza-spiro[4.5]dec-1-ene-8-sulfonyl]-ethyl}-3,N,N-trimethyl-benzamide] | 
83% | CCC1CCC(C2=NC3(CCN(S(=O)(=O)CCc4ccc(C(=O)N(C)C)cc4C)CC3)C(=O)N2)CC1 (centres unmarked) [Compound 896, 4-{2-[2-(4-ethyl-cyclohexyl)-4-oxo-1,3,8-triaza-spiro[4.5]dec-1-ene-8-sulfonyl]-ethyl}-3,N,N-trimethyl-benzamide] | 
